From ChEMBL document CHEMBL1201862, “PubChem BioAssay data set” (2004)
The source made the active and inactive calls.

Assays:
HeLa = experiment: HeLa cell cytotoxicity, dose response, cytotoxicity control, ATP luminescence, cherry-pick samples (AID 687004); format: functional, cell-based; conditions: Homo sapiens
[1] = HEK293T cytotoxicity, dose response, cytotoxicity control for miR-122 modulator project, cell-based, inhibitor set, cherry-pick, set 2 (AID 720697); format: functional
[2] = miR-122 activators in hepatoma reporter cells, dose response, cell-based, Huh7 psiCHECK-miR122, Renilla luciferase, cherry-picked (AID 651956); format: functional;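 further: huh7 hepatoma cells stably carrying a psiCHECK-2 miR-122 sensor plasmid; renilla luciferase signal reporting endogenous miR-122 activity after 48 h compound exposure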
[3] = HEK293T cytotoxicity, dose response, cytotoxicity control for miR-122 modulator project, cell-based, activator set, cherry-pick (AID 720690); format: functional;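 further: HEK293T human cells scored for general mammalian cytotoxicity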
Lethal factor = Lethal factor (Bacillus anthracis, UniProt P15917); experiment: High-throughput multiplex microsphere dose response for inhibitors of toxin protease, specifically Lethal Factor protease, compounds from Powder Set 01.; format: functional, Bacillus anthracis str. A2012; conditions: read-out: EC50_MICROM
Lethal factor, sequence (P15917 whole entry): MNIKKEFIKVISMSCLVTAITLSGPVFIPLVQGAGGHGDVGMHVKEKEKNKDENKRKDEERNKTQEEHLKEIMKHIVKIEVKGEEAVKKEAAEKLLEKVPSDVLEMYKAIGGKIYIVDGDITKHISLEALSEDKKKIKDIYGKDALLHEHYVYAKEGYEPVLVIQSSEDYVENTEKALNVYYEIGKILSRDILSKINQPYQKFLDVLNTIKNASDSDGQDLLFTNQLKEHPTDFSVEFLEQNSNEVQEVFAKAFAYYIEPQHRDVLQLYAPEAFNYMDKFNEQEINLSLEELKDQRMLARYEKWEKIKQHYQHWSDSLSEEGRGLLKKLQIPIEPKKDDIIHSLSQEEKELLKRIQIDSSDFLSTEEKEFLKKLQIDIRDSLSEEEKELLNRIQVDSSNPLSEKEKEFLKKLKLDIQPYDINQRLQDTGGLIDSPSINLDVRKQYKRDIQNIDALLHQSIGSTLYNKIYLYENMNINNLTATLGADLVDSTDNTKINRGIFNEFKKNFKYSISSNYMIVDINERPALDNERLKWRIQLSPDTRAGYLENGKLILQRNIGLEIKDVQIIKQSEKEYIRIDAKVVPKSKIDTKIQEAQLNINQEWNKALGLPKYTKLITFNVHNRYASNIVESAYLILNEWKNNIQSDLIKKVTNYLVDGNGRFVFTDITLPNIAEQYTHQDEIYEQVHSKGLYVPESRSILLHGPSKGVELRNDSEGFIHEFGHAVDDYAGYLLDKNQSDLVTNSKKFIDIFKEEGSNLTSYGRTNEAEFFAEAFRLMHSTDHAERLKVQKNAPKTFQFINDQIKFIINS

[4] = target: T1, Botulinum neurotoxin type A (Clostridium botulinum (strain Hall / ATCC 3502 / NCTC 13319 / Type A), UniProt P0DPI1); experiment: Confirmatory FRET assay using full length substrates for Botulinum neurotoxin light chain A protease, with Powder Set01.; format: functional
T1 sequence (P0DPI1 2-448 limits assumed): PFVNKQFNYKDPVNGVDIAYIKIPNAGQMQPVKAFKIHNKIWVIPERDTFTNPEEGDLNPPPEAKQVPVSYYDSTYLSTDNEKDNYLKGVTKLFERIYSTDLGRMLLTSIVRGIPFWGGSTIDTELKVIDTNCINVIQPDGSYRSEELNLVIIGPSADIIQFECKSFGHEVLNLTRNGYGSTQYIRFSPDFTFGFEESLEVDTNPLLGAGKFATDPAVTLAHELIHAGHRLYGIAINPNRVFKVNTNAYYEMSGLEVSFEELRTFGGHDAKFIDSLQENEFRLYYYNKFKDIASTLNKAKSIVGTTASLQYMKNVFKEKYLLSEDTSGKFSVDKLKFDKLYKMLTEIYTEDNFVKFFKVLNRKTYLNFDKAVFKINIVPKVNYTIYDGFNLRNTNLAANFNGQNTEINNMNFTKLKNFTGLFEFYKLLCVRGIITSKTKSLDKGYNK

[5] = target: T1, Botulinum neurotoxin type A; experiment: High-throughput multiplex microsphere dose response for inhibitors of toxin protease, specifically Botulinum neurotoxin light chain A protease, compounds from Powder Set 01.; format: functional, Clostridium botulinum A str. ATCC 3502; conditions: read-out: EC50_MICROM
[6] = target: Botulinum neurotoxin type F (Clostridium botulinum, UniProt P30996); experiment: High-throughput multiplex microsphere dose response for inhibitors of toxin protease, specifically Botulinum neurotoxin light chain F protease, compounds from Powder Set 01.; format: functional, Clostridium botulinum Bf; conditions: read-out: EC50_MICROM
Botulinum neurotoxin type F, sequence (P30996 1-436 limits assumed): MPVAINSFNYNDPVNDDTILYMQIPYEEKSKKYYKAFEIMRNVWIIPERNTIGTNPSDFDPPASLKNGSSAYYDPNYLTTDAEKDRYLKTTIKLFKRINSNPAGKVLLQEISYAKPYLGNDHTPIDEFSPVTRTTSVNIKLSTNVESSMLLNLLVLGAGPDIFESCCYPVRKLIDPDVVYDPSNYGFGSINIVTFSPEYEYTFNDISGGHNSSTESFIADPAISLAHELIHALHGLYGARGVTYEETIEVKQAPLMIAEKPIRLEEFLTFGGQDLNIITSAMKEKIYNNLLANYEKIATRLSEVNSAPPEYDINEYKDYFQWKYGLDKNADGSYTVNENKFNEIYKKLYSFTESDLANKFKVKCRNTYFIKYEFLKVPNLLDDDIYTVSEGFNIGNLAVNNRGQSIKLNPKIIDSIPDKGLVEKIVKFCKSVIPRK

Mu-type opioid receptor = Mu-type opioid receptor (Homo sapiens, UniProt P35372); format: functional, cell-based;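 further: U2OS cells with beta-arrestin recruitment to OPRM1 by beta-gal complementation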
Mu-type opioid receptor, sequence (P35372 whole entry): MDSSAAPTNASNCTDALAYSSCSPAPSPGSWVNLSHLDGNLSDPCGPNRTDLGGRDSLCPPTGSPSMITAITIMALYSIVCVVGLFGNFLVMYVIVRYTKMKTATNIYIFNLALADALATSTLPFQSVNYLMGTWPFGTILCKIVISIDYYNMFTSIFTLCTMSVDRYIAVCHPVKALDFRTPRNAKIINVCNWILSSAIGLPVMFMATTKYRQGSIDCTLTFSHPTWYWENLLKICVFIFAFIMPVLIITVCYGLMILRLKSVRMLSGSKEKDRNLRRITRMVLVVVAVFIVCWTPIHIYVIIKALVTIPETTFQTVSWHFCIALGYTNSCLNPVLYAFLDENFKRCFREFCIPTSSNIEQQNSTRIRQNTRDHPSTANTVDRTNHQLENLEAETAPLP

[7] = target: 5-hydroxytryptamine receptor 2A (Mus musculus, UniProt P35363); format: functional, cell-based;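 further: CHO-K1 cells with tagged receptor and beta-arrestin; agonist potency measured as compound-induced activation of the receptor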
5-hydroxytryptamine receptor 2A, sequence (P35363 whole entry): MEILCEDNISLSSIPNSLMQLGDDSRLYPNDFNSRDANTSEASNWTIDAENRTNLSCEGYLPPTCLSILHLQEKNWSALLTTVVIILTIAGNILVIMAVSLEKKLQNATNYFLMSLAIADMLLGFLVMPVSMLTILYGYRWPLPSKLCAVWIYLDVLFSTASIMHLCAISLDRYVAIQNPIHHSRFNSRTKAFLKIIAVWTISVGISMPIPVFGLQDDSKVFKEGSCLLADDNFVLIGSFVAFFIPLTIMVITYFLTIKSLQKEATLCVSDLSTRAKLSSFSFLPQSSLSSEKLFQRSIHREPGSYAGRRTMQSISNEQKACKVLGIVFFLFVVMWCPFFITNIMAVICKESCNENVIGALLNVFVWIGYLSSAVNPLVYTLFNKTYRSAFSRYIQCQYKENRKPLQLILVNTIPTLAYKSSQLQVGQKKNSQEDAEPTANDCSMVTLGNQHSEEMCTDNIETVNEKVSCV

[8] = target: T2, Replicative DNA helicase DnaB (Mycobacterium tuberculosis, UniProt P9WMR3); experiment: DnaB intein splicing inhibitors, dose response, biochemical, cell-free fluorescence (AID 449749); format: functional
T2 sequence (P9WMR3 whole entry): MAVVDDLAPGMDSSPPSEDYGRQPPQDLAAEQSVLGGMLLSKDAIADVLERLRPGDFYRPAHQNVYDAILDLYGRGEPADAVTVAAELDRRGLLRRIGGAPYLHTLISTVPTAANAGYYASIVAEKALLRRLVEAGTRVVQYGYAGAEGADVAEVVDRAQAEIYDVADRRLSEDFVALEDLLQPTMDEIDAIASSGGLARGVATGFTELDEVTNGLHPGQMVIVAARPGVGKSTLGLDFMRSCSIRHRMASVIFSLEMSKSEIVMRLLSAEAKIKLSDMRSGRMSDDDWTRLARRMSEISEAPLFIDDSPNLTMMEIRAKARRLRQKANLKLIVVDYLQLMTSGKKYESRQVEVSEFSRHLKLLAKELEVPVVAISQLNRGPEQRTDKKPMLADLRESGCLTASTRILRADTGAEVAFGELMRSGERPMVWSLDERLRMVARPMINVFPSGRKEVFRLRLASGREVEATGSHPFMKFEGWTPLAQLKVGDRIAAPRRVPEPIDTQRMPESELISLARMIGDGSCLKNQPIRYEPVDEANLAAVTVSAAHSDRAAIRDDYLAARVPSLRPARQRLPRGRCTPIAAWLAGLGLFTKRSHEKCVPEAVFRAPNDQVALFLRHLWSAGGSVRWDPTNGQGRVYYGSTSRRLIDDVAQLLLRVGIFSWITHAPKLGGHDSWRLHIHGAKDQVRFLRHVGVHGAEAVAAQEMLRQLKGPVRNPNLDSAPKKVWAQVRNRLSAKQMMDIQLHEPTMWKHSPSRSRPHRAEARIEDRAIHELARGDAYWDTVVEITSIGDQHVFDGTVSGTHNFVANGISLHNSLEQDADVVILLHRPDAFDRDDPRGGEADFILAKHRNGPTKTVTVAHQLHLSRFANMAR

[9] = target: T3, Sentrin-specific protease 8 (Homo sapiens, UniProt Q96LD8); format: functional
T3 sequence (Q96LD8 whole entry): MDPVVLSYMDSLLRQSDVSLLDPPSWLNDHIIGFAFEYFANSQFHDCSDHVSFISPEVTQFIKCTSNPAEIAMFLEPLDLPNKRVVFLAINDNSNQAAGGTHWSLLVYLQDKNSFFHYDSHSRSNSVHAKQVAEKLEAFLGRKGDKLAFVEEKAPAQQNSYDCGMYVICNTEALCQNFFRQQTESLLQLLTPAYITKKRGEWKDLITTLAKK

Protein RecA = target: T4, Protein RecA (Mycobacterium tuberculosis, UniProt P9WHJ3); experiment: Fluorescence Cell-Free Homogeneous Dose Retest to Identify Inhibitors of RecA-Intein Splicing Activity. [Related pubchem assays (depositor defined):AID2097, AID2223, AID489010, AID492950]; format: functional
T4 sequence (P9WHJ3 whole entry): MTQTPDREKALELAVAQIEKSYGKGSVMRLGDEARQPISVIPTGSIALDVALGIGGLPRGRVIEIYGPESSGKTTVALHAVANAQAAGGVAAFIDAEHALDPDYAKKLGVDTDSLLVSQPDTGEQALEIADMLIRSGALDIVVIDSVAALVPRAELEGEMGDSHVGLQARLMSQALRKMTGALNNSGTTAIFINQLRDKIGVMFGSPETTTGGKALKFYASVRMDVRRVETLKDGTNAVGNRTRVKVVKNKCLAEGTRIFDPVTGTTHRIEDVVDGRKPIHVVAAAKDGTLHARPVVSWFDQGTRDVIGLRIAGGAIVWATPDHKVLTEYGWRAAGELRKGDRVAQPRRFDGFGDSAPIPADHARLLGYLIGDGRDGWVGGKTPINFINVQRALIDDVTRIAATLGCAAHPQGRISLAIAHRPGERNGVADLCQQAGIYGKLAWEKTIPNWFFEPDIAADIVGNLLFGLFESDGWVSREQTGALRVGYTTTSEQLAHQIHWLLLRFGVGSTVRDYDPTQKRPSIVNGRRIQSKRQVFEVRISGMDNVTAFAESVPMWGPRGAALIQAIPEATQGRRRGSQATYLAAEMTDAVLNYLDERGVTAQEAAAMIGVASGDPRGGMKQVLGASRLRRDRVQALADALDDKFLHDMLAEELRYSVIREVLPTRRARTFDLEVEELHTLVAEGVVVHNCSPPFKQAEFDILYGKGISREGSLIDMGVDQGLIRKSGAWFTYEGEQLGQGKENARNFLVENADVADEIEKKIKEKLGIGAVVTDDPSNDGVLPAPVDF

[10] = target: T3, Sentrin-specific protease 8; format: functional; remark: listed apart in the source
[11] = target: T5, Rac GTPase-activating protein 1 (Homo sapiens, UniProt Q9H0H5); experiment: MgcRacGAP GTPase-activating activity inhibitors, confirmation, biochemical, ADP Hunter fluorescence, primary and confirmatory (AID 624330); format: functional
T5 sequence (Q9H0H5 whole entry): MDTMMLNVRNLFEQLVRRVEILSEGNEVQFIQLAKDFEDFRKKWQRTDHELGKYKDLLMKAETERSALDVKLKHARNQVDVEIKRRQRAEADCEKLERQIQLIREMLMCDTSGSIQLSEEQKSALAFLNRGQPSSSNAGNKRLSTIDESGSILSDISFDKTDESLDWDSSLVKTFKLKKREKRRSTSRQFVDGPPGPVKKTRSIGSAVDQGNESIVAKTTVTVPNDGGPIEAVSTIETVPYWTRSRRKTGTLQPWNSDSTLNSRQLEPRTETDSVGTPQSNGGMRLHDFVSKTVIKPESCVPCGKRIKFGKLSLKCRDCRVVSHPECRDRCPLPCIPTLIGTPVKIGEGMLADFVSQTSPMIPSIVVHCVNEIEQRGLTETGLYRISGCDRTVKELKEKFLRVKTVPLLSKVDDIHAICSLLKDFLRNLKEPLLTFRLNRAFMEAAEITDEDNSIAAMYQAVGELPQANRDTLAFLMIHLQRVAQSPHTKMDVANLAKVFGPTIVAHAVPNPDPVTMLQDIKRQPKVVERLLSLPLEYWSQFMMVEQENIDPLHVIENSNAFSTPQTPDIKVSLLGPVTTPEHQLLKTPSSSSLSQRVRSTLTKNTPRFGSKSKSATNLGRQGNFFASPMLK

[12] = target: T6, Zinc finger protein mex-5 (Caenorhabditis elegans, UniProt Q9XUB2); experiment: MEX-5/TCR-2 RNA interaction inhibitors, dose response, biochemical, C. elegans, fluorescence polarization (AID 1960)
T6 sequence (Q9XUB2 whole entry): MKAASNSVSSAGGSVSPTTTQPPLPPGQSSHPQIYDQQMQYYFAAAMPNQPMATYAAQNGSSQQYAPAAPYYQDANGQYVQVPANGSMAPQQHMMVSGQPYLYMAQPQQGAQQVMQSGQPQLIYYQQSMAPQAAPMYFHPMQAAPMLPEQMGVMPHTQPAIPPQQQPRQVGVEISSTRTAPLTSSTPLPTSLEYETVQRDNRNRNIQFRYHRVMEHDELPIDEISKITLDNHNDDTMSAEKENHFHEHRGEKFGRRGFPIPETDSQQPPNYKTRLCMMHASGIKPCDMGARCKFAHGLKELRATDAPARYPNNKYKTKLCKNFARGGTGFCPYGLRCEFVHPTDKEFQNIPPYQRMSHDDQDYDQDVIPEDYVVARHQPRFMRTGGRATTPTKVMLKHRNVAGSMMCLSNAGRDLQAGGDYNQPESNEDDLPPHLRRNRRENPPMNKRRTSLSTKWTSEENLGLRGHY

[13] = target: T7, RNA-binding protein pos-1 (Caenorhabditis elegans, UniProt G5EF15); experiment: inhibitors of POS-1/mex-3 RNA binding, dose response, biochemical, fluorescence polarization (AID 1964);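 further: purified POS-1 fused to maltose binding protein made in E. coli; potency of compounds blocking POS-1 binding to fluorescent RNA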
T7 sequence (G5EF15 whole entry): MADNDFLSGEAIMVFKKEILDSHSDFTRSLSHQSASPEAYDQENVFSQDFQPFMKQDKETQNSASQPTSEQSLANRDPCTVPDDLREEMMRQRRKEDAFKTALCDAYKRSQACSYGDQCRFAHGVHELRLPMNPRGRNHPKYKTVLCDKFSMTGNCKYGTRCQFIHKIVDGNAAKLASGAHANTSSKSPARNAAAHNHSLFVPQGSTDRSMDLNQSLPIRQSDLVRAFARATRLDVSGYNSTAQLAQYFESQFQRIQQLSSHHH

[14] = target: Long-chain-fatty-acid--AMP ligase FadD28 (Mycobacterium tuberculosis, UniProt P9WQ59); experiment: Fluorescence polarization aasay to screen for inhibitors that compete for the binding of FadD28 to a bisubstrate Measured in Biochemical System Using Plate Reader - 2147-01_Inhibitor_Dose_CherryPick_Activity.; format: functional, Mycobacterium tuberculosis H37Rv
Long-chain-fatty-acid--AMP ligase FadD28, sequence (P9WQ59 whole entry): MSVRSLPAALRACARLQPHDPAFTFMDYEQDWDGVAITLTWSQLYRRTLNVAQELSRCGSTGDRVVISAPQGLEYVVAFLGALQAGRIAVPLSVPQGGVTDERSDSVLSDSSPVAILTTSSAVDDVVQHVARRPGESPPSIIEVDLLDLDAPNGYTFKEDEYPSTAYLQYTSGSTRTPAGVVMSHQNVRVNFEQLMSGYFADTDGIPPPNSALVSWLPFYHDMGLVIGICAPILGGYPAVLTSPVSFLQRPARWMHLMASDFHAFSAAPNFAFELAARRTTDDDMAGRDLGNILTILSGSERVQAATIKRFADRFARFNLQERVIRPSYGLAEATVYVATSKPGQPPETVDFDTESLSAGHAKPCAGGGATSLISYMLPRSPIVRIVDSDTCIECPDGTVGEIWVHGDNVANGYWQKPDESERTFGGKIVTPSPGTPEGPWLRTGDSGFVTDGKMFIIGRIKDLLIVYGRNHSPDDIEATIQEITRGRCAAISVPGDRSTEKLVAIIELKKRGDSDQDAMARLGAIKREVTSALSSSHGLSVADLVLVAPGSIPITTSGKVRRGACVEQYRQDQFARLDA

Beta-lactamase [15] = target: Beta-lactamase (Salmonella choleraesuis (strain SC-B67), UniProt Q5J463)
Beta-lactamase (Salmonella choleraesuis (strain SC-B67), UniProt Q5J463), sequence (Q5J463 whole entry): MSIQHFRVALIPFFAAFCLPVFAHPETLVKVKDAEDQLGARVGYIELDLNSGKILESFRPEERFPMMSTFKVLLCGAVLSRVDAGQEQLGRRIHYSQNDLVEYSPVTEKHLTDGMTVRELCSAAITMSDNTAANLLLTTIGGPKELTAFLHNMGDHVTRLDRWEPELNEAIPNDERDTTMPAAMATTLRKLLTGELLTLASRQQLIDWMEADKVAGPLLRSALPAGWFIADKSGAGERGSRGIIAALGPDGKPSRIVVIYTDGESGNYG

Beta-lactamase [16] = target: Beta-lactamase (Pseudomonas aeruginosa, UniProt Q79MP6);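 further: biochemical dose-response test of metallo-beta-lactamase enzyme inhibition, read out by epi-absorbance; purified recombinant IMP-1 metallo-beta-lactamase with nitrocefin as substrate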
Protein Wnt-3a = Protein Wnt-3a (Mus musculus, UniProt P27467); experiment: SAR analysis of small molecule antagonists of Gli-SUFU in a Wnt3a luminescent reporter assay.; format: functional
Protein Wnt-3a, sequence (P27467 whole entry): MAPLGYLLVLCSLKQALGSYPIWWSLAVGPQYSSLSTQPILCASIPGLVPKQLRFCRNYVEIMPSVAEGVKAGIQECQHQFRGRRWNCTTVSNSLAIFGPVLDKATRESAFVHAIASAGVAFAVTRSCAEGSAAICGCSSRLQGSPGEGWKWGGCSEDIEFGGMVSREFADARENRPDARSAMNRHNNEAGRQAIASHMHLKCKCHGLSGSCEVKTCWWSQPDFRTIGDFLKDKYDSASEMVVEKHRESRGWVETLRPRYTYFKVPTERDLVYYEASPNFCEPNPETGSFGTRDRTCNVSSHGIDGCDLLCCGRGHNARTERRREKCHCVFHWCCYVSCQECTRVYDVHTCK

[17] = target: T8, Trace amine-associated receptor 1 (Homo sapiens, UniProt Q96RJ0); experiment: Counterscreen for agonists of the human trace amine associated receptor 1 (hTAAR1): Fluorescence-based cell-based high throughput dose response assay to identify hTAAR1 agonist that also desensitize TAAR1 receptor response.; format: functional
T8 sequence (Q96RJ0 whole entry): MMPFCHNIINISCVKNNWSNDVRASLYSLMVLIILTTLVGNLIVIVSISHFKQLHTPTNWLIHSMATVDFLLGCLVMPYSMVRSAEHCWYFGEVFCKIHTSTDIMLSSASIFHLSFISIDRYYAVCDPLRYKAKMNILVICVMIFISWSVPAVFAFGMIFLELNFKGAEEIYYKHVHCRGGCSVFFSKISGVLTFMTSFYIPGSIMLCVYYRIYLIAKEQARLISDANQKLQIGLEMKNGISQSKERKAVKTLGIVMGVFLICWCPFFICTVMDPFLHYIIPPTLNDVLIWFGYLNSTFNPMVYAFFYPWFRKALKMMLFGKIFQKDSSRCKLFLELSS

[18] = target: T8, Trace amine-associated receptor 1; experiment: Fluorescence-based cell-based high throughput dose response assay to identify agonists of the human trace amine associated receptor 1 (TAAR1).; format: functional
cells [19] = format: functional, cell-based
cells [20] = format: functional, cell-based; remark: listed apart in the source
[21] = Counterscreen for inhibitors of Trypanosoma brucei methionyl tRNA synthetase (MetRS): Luminescence-based cell-based high throughput dose response assay to identify compounds that are cytotoxic to Jurkat human T lymphocyte cells.; format: functional
[22] = target: T9, Methionyl-tRNA synthetase, putative (Trypanosoma brucei brucei, UniProt Q38C91); format: functional, Trypanosoma brucei brucei strain 927/4 GUTat10.1
T9 sequence (Q38C91 whole entry): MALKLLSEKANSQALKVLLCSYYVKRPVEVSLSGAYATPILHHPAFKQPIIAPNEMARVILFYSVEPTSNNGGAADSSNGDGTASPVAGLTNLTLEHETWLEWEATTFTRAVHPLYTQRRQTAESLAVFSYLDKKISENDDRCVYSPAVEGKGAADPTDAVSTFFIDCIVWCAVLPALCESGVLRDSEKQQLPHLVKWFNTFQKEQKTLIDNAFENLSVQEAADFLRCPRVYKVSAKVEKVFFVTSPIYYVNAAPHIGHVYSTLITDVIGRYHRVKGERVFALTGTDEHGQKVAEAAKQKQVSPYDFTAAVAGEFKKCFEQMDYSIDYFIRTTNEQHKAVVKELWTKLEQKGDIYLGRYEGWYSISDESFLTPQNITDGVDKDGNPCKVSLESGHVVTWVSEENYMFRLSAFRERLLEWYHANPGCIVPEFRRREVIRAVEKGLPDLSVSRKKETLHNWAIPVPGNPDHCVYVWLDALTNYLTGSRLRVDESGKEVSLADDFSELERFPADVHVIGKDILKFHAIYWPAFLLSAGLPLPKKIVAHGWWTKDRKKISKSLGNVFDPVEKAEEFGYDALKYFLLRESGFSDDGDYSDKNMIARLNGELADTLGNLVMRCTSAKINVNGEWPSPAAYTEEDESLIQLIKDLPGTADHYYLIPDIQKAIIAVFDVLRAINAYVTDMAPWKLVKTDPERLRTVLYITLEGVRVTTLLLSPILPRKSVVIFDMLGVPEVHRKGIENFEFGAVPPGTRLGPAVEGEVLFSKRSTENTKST

[23] = target: T9, Methionyl-tRNA synthetase, putative; format: functional, Trypanosoma brucei brucei strain 927/4 GUTat10.1; remark: listed apart in the source

C[C@@H]1CN([C@@H](C)CO)C(=O)c2cc(NS(=O)(=O)c3cn(C)cn3)ccc2O[C@@H](C)CCCCO[C@@H]1CN(C)Cc1ccc(C(F)(F)F)cc1
AC50 (HeLa): 13 µM (active)

C[C@@H]1CN([C@@H](C)CO)C(=O)Cc2cc(NC(=O)c3ccncc3)ccc2O[C@H]1CN(C)Cc1ccc(-c2ccccc2)cc1
AC50 [1]: 15.9 µM (active) | AC50 [2]: 4.94 µM (active) | AC50 [3]: 23.6 µM (active)

Clc1ccc(-c2cn3nc(-c4ccccc4)c(-c4ccccc4)nc3n2)cc1
EC50 (Lethal factor): 1.6 µM (active) | EC50 [4]: 2.4 µM (active) | EC50 [5]: 1 µM (active) | EC50 [6]: 7.4 µM (active)

Clc1ccc(CN2CCN(c3ncccn3)CC2)cc1
EC50 (Mu-type opioid receptor): 92.5 µM (inactive) | EC50 [7]: 153 nM (active)

COC(=O)CCCC1=CC2=C(c3ccccc3)C(=O)C(C)(OC(=O)C3CCCC3)C(=O)C2=CN1CCCCO (stereo not drawn)
AC50 [8]: 68.9 µM (active) | IC50 [9]: 2.93 µM (active) | EC50 (Protein RecA): 18.4 µM (active) | IC50 [10]: 6.43 µM (active)

O=C(CNS(=O)(=O)c1ccc([N+](=O)[O-])cc1)N/N=C/c1ccc(O)cc1O
IC50 [11]: 128 µM (active) | EC50 [12]: 8.33 µM (active) | EC50 [13]: 8.98 µM (active) | AC50 [14]: 9.67 µM (active)

COc1ccc(-c2occ(C(=O)O)c2C(=O)O)cc1
IC50 (Beta-lactamase [15]): > 59.6 µM (inactive) | IC50 (Beta-lactamase [16]): 23.5 µM (inactive)

CC(C)Nc1cc(NC(=O)c2ccccc2)ncn1
IC50 (Protein Wnt-3a): > 21.8 µM (inactive)

O=C(C(=O)N1CCc2ccccc2C1)c1cn(CC(=O)N2CCCCC2)c2ccccc12
IC50 [17]: 3.57 µM (active) | EC50 [18]: 879 nM (active) | EC50 (cells [19]): > 29.9 µM (inactive) | IC50 (cells [20]): > 29.9 µM (inactive)

O=C(Nc1ccccc1)Nc1nnc(CSCc2ccccc2Cl)s1
IC50 [21]: 27.7 µM (inactive) | IC50 [22]: 46.7 µM (inactive) | IC50 [23]: 6.26 µM (active)
